Source: US11952349B2, “Anti-cancer nuclear hormone receptor-targeting compounds” (Nuvation Bio Inc., priority 2019, dated 2024)
Like-named read-outs stand apart in the source and are kept apart here. Values belong to the compound of their own block, whether it stands above or below them.

Legend:
Human recombinant PARP2 = Human recombinant PARP2 (Homo sapiens, UniProt Q9UGN5); assay: RBC HotSpot PARP2 assay (radioisotope-based filter binding); assay type: biochemical
Description: The following methods are for evaluating the in vitro biology properties of the test articles. • a. RBC HotSpot Poly(ADP-ribose) Polymerases 1 (PARP1) and Poly(ADP-ribose) Polymerases 2 (PARP2) Assays: The assay was conducted at Reaction Biology Corporation (RBC; Malvern, PA). The assay principle is radioisotope-based filter binding assay where incorporation of radioisotope-labeled NAD^+ into the substrate captured on filter is detected after washout free NAD^+. Data were analyzed using Excel and GraphPad Prism software for IC50 curve fits. Each assay was conducted with PJ34 as a positive control. PARP1 assay: Human recombinant PARP1 at a final concentration of 2.5 nM was combined with histone H4 (20 μM) and test articles at various concentrations in reaction buffer (50 mM Tris-HCL, pH 8.0, 50 mM NaCl, 10 mM MgCl2, 1 mM DTT, 1% DMSO, and 20 μg/mL activated DNA). The solution was inoculated for 20 min at room temperature and the reaction initiated by adding [adenylate-^32P]-Nicotinamide Adenine Dinucleotide, ^32P-NAD^+ at a final concentration of 10 μM. After incubation for 2 hrs at room temperature, the reaction mixture was filtered and washed with 0.75% phosphoric acid for radioactivity detection. • ii. PARP2 assay: Human recombinant PARP2 at a final concentration of 2.5 nM was combined with histone H3 (20 μM) and test articles at various concentrations in reaction buffer (50 mM Tris-HCL, pH 8.0, 50 mM NaCl, 10 mM MgCl2, 1 mM DTT, 1% DMSO, and 20 μg/mL activated DNA). The solution was inoculated for 20 min at room temperature and the reaction was initiated by adding [adenylate-^32P]-Nicotinamide Adenine Dinucleotide, ^32P-NAD^+ at a final concentration of 10 μM. After incubation for 2 hrs at room temperature, the reaction mixture was filtered and washed with 0.75% phosphoric acid for radioactivity detection. • b. AR binding assay: AR in LNCaP cytosol was used for determining the binding affinity of test articles and the reference compound—progesterone (Sigma, Cat: E2785, St. Louis, MO). IC50 s were determined using 8 concentrations/compound. Cytosol is plated at 200 μg/well (100 μL) into a 96-well conical polypropylene plate (Agilent, Cat: 5042-1385, Santa Clara, CA) and mixed with 3 μL of test compound. After adding 100 μL of ^3H-methyltrienolone (PerkinElmer, Cat: NET590250UC, San Jose, CA), the plate was sealed and shaken at 300 rpm at 4° C. for 24 hours. Post incubation, 100 μL of radioligand adsorption buffer containing 10 mM Tris-HCl, pH 7.4; 1.5 mM EDTA; 1 mM DTT; 0.25% charcoal; 0.0025% dextran was added to individual wells. Plate was shaken for 15 min at 4° C. followed by centrifugation at 3000 rpm for 30 min at 4° C. 150 μL of supernatant is transferred into scint-tube (PerkinElmer, Cat: 6000192) and mixed with 2 mL of Ultima Gold Cocktail (PerkinElmer, Cat: 6013329). Radioactivity is counted using a TriCarb 2910 TR scintillation counter (PerkinElmer). Inhibition of the radioactivity by test articles was calculated using the equation below: % Inhibition=(1−(Assay well−Average_LC)/(Average_HC−Average_LC))×100%. • IC50 values (Table 6) were calculated and graphed using the model “log(inhibitor) vs. response—Variable slope” included in GraphPad Prism 5 (San Diego, CA). The Ki values were further calculated using the equation below where [L] is the radioligand concentration (1 nM) used in this study. Kd value was 0.332 nM. Ki=IC50/(1+[L]/Kd) • c. AR transactivation: Human AR cloned into a CMV vector backbone is used for the transactivation study. HEK-293 cells are plated at 80,000 cells per well of a 24 well plate in DME+5% csFBS. Twenty four hours later, the cells are transfected using Lipofectamine (Invitrogen, Carlsbad, CA) with 0.25 μg GRE-LUC, 0.01 μg CMV-LUC (renilla luciferase) and 25 ng of the AR in OPTIMEM medium. The cells are treated 24 hrs after transfection with various ligands (10^−12 to 10^−5 M final concentrations) and luciferase assay performed 48 hours after transfection. […]

[1] = biological target: T1, full-length androgen receptor (Homo sapiens, UniProt P10275); assay: AR antagonism assay (HEK293, testosterone 1 nM, Steady-glo); assay type: cell-based
T1 construct: HEK293 cells stably expressing the full-length androgen receptor; expressed in transfected cells
T1 sequence (P10275 1-920): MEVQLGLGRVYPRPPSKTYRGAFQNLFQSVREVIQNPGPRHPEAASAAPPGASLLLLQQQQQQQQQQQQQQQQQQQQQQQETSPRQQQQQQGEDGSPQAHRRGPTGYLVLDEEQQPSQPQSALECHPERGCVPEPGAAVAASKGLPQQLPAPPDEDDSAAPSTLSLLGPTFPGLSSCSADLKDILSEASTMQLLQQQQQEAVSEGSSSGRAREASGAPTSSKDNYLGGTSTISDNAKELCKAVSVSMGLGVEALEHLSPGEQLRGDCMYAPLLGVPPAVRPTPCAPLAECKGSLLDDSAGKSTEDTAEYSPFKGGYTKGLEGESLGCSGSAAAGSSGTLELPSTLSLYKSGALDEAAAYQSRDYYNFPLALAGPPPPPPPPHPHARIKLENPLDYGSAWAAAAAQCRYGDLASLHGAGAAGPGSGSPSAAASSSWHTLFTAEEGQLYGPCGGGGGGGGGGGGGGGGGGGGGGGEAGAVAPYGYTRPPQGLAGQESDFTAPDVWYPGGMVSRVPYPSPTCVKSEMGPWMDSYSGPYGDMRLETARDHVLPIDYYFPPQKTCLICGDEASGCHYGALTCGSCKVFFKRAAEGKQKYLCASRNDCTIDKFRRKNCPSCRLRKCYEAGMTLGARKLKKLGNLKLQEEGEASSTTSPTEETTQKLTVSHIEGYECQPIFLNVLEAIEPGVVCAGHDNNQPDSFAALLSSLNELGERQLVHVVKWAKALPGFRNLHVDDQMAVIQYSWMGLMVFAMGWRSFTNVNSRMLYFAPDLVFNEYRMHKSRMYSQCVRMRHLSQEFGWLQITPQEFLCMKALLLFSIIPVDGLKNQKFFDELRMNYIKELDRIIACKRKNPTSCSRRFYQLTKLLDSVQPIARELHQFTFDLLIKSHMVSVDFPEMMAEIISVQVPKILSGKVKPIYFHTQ
Description: AR antagonism assay: To evaluate AR antagonist activity, test compound was added to the assay plate (top dose 10 μM, 3 fold serial dilution, 10 point dose response). HEK293 cells stably expressing the full-length androgen receptor were seeded at a density of 20000 cells/well in the assay plate. The assay plate was then incubated at room temperature for 10 minutes and at 37° C., 5% CO2 for 20 minutes. Testosterone was added to the assay plate at 1 nM final concentration and the assay plate was incubated at 37° C., 5% CO2 for 20 h. After the incubation period, Steady-glo was added to the assay plate and mixed at room temperature for 20 minutes on an orbital shaker, before reading out on the EnVision plate reader.

[2] = Table 8, testosterone 1 nM, read-out: AR antagonism

Chain of Human recombinant PARP2 (Q9UGN5 whole entry): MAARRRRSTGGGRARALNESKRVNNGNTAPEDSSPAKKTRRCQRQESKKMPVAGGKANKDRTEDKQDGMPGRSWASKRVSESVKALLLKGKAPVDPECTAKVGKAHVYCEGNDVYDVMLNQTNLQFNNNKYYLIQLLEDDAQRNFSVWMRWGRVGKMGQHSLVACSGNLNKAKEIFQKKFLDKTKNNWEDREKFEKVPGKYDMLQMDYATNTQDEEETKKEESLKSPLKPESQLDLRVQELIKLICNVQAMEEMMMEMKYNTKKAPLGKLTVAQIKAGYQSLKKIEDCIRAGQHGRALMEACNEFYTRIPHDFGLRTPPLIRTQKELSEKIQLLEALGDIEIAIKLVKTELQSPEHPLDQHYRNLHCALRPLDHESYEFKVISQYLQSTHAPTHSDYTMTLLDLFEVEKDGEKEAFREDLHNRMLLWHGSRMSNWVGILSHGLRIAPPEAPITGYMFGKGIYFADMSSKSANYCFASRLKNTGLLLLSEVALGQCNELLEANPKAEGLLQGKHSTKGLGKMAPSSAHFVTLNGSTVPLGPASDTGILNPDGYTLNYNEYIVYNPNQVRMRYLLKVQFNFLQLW

IC50 (Human recombinant PARP2; Table 9, read-out: PARP2): < 1 nM
IC50 [1, 2]: > 10000 nM
SMILES: CC(=O)O[C@]1(C(C)=O)CC[C@H]2[C@@H]3CCC4=CC(=O)CCC4=C3[C@@H](c3ccc(N(C)CCCCCC(=O)NCCOCCOCC(=O)N4CCN(C(=O)c5cc(Cc6n[nH]c(=O)c7ccccc67)ccc5F)CC4)cc3)C[C@@]21C [Compound 1384, (8S,11R,13S,14S,17R)-17-acetyl-11-(4-((6-(2-(2-(2-(4-(2-fluoro-5-((4-oxo-3,4-dihydrophthalazin-1-yl)methyl)benzoyl)piperazin-1-yl)-2-oxoethoxy)ethoxy)ethylamino)-6-oxohexyl)(methyl)amino)phenyl)-13-methyl-3-oxo-2,3,6,7,8,11,12,13,14,15,16,17-dodecahydro-1H-cyclopenta[a]phenanthren-17-yl acetate]

IC50 (Human recombinant PARP2; Table 9, read-out: PARP2): < 1 nM
IC50 [1, 2]: 100 to 1000 nM
SMILES: CC(=O)O[C@]1(C(C)=O)CC[C@H]2[C@@H]3CCC4=CC(=O)CCC4=C3[C@@H](c3ccc(N(C)CCCCCC(=O)N4CCN(C(=O)c5cc(Cc6n[nH]c(=O)c7ccccc67)ccc5F)CC4)cc3)C[C@@]21C [Compound 1378, (8S,11R,13S,14S,17R)-17-acetyl-11-(4-((6-(4-(2-fluoro-5-((4-oxo-3,4-dihydrophthalazin-1-yl)methyl)benzoyl)piperazin-1-yl)-6-oxohexyl)(methyl)amino)phenyl)-13-methyl-3-oxo-2,3,6,7,8,11,12,13,14,15,16,17-dodecahydro-1H-cyclopenta[a]phenanthren-17-yl acetate]

IC50 (Human recombinant PARP2; Table 9, read-out: PARP2): < 1 nM
IC50 [1, 2]: > 10000 nM
SMILES: CC#C[C@]1(O)CC[C@H]2[C@@H]3CCC4=CC(=O)CCC4=C3[C@@H](c3ccc(N(C)CCCCCC(=O)NCCOCCOCC(=O)N4CCN(C(=O)c5cc(Cc6n[nH]c(=O)c7ccccc67)ccc5F)CC4)cc3)C[C@@]21C [Compound 1429, N-(2-(2-(2-(4-(2-fluoro-5-((4-oxo-3,4-dihydrophthalazin-1-yl)methyl)benzoyl)piperazin-1-yl)-2-oxoethoxy)ethoxy)ethyl)-6-((4-((8S,11R,13S,14S,17S)-17-hydroxy-13-methyl-3-oxo-17-(prop-1-ynyl)-2,3,6,7,8,11,12,13,14,15,16,17-dodecahydro-1H-cyclopenta[a]phenanthren-11-yl)phenyl)(methyl)amino)hexanamide]

Continued, compound first:

SMILES: C[C@]12C[C@H](CCCCCC(=O)N3CCN(C(=O)c4cc(Cc5n[nH]c(=O)c6ccccc56)ccc4F)CC3)C3=C4CCC(=O)C=C4CC[C@H]3[C@@H]1CCC2O (stereo partly drawn) [Compound 138, 4-(4-fluoro-3-(4-(6-((8S,11S,13S,14S)-17-hydroxy-13-methyl-3-oxo-2,3,6,7,8,11,12,13,14,15,16,17-dodecahydro-1H-cyclopenta[a]phenanthren-11-yl)hexanoyl)piperazine-1-carbonyl)benzyl)phthalazin-1(2H)-one]
IC50 (Human recombinant PARP2; Table 9, read-out: PARP2): < 1 nM
IC50 [1]: 100 to 1000 nM

SMILES: CC#C[C@]1(O)CC[C@H]2[C@@H]3CCC4=CC(=O)CCC4=C3[C@@H](c3ccc(N(C)CCCCCC(=O)N4CCN(C(=O)c5cc(Cc6n[nH]c(=O)c7ccccc67)ccc5F)CC4)cc3)C[C@@]21C [Compound 135, 4-(4-fluoro-3-(4-(6-((4-((8S,11R,13S,14S,17S)-17-hydroxy-13-methyl-3-oxo-17-(prop-1-ynyl)-2,3,6,7,8,11,12,13,14,15,16,17-dodecahydro-1H-cyclopenta[a]phenanthren-11-yl)phenyl)(methyl)amino)hexanoyl)piperazine-1-carbonyl)benzyl)phthalazin-1(2H)-one]
IC50 (Human recombinant PARP2; Table 9, read-out: PARP2): < 1 nM
IC50 [1, 2]: 100 to 1000 nM

SMILES: Cn1ncnc1C1c2n[nH]c(=O)c3cc(F)cc(c23)N[C@@H]1c1ccc(NC(=O)CCCCCO[C@@H]2CC[C@H]3[C@@H]4CC[C@H]5CCCC[C@]5(C)[C@H]4CC[C@]23C)cc1 (stereo partly drawn) [Compound 1128, 6-((5R,8R,9S,10S,13S,14S,17R)-10,13-dimethylhexadecahydro-1H-cyclopenta[a]phenanthren-17-yloxy)-N-(4-((8S)-5-fluoro-9-(1-methyl-1H-1,2,4-triazol-5-yl)-3-oxo-3,7,8,9-tetrahydro-2H-pyrido[4,3,2-de]phthalazin-8-yl)phenyl)hexanamide]
IC50 (Human recombinant PARP2; Table 5, in vitro results, read-out: PARP2 IC50): 14 nM
IC50 ([1]; Table 7, testosterone 1 nM, read-out: AR antagonism): 1000 to 10000 nM

SMILES: C[C@@]12CCC(=O)C[C@H]1CC[C@H]1[C@H]2CC[C@]2(C)[C@@H]1CC[C@H]2OCCCCCCNC(=O)c1cc(Cc2n[nH]c(=O)c3ccccc23)ccc1F (stereo in doubt) [Compound 1426, N-(6-((5R,8S,9R,10R,13R,14R,17R)-10,13-dimethyl-3-oxohexadecahydro-1H-cyclopenta[a]phenanthren-17-yloxy)hexyl)-2-fluoro-5-((4-oxo-3,4-dihydrophthalazin-1-yl)methyl)benzamide]
IC50 (Human recombinant PARP2; Table 9, read-out: PARP2): 1 to 10 nM
IC50 [1]: 100 to 1000 nM

SMILES: C[C@]12CC[C@H]3[C@@H](CCC4=CC(=O)CC[C@@]43C)[C@@H]1CC[C@@H]2C(=O)COCCCCCC(=O)N1CCN(C(=O)c2cc(Cc3n[nH]c(=O)c4ccccc34)ccc2F)CC1 [Compound 1386, 4-(3-(4-(6-(2-((8S,9S,10R,13S,14S,17S)-10,13-dimethyl-3-oxo-2,3,6,7,8,9,10,11,12,13,14,15,16,17-tetradecahydro-1H-cyclopenta[a]phenanthren-17-yl)-2-oxoethoxy)hexanoyl)piperazine-1-carbonyl)-4-fluorobenzyl)phthalazin-1(2H)-one]
IC50 (Human recombinant PARP2; Table 9, read-out: PARP2): < 1 nM
IC50 [1, 2]: 100 to 1000 nM
